According to patent publication US20090176817A1, “Method of Treatment of Diarrhea-Predominant Irritable Bowel Syndrome in a Subject” (priority 2005, published 2009):

Columns and labels:
[1] = tested on: non-constipated IBS subjects; experiment: Study S241.2.112: Phase II dose-ranging efficacy; format: in vivo, human
Description: Study S241.2.112 was a Phase II, double-blind, placebo-controlled, randomized, multicenter parallel-group, dose-ranging study to investigate the efficacy and safety of cilansetron in non-constipated subjects with irritable bowel syndrome. The study was conducted in 51 study centers in the U.S. A total of at least 88 subjects were planned per treatment group evaluable for efficacy, in total 440 to complete the study; 975 subjects were screened; 490 were randomized and 481 analyzed for safety.
Diagnosis and main criteria for inclusion were IBS subjects satisfying the Rome criteria (1992) and minimum abdominal pain/discomfort, stool frequency and consistency determined during the run-in period. Subjects were treated with cilansetron 1 mg, 2 mg, 8 mg, and 16 mg tablets given orally TID or matching placebo tablets given orally TID for 12 weeks.
Efficacy was evaluated by weekly global questions concerning adequate relief of IBS symptoms (abdominal pain/discomfort, abnormal bowel habits). A responder is a subject who responded “Yes” at least 50% of the time after randomization, with a minimum treatment duration of four weeks.

clinical [2] = conditions: human, in vivo, po
Description: Two randomized, double-blind, placebo controlled, rising dose, crossover studies evaluated the single-dose pharmacokinetics of oral cilansetron over a 4 mg to 64 mg dose range. In one study, 24 male subjects (aged 21-36 years) received, at intervals of […], single oral doses of 4, 8, and 16 mg cilansetron in ascending order and a randomized placebo. In the other study, 24 male subjects received, at intervals of ≧1 week, single oral doses of 16, 32, and 64 mg cilansetron in ascending order and a randomized placebo. All doses were administered under fasted conditions. […] Renal excretion of cilansetron was negligible across all doses, with undetectable or very low amounts (<1% of the dose) excreted unchanged in urine.
Data for the evaluation of dose proportionality of oral cilansetron is available from three studies which have evaluated the pharmacokinetics of single doses over a 2 mg to 64 mg dose range. Two randomized, double-blind, placebo controlled, rising dose, crossover studies, in 24 male subjects each, evaluated the single dose pharmacokinetics of oral cilansetron (capsules) over a 4-16 mg and 16-64 mg dose range, respectively. In each study, subjects received, at intervals of ≧1 week, single oral doses of cilansetron in ascending order and a randomized placebo. All doses were administered under fasted conditions. A third open-label, randomized, parallel-group study in 36 male and female subjects, evaluated the single dose pharmacokinetics of a cilansetron 2 mg tablet administered under fed conditions. FIG. 16 to FIG. 19 present box plots of cilansetron AUC(0-inf) and Cmax from these three studies (males only), and corresponding dose-normalized values (normalized to a 1 mg dose). […] Table 2.7.2.3.14 presents descriptive statistics of cilansetron dose-normalized AUC and Cmax in these studies, and the results of statistical comparisons between doses.

clinical [3] = conditions: human, in vivo, iv
Description: The pharmacokinetics of intravenously administered cilansetron have also been evaluated in several studies. In a randomized, double-blind, placebo controlled, rising dose, crossover study in 24 male subjects, aged 23-37 years, the single-dose pharmacokinetics of IV cilansetron were evaluated over a 4 mg to 16 mg dose range. Subjects received, at intervals of 1 week, single doses of 4, 8, and 16 mg IV cilansetron in ascending order and a randomized placebo. Infusion times ranged from 15-30 minutes. All doses were administered under fasted conditions.
In a randomized, double-blind, placebo controlled, rising dose, crossover study, 24 male subjects (aged 23-37 years) received single doses of 4, 8, and 16 mg IV cilansetron in ascending order and a randomized placebo, infused over 15-30 minutes. All doses were administered under fasted conditions. FIG. 14 and FIG. 15 present box plots of cilansetron AUC(0-inf) and dose-normalized AUC(0-inf) values (normalized to a 1 mg dose), respectively, and Table 2.7.2.3.13 presents descriptive statistics for the results of statistical pairwise comparisons of dose-normalized parameters between doses.

CYP1A2 = CYP1A2 (Homo sapiens, UniProt P05177); experiment: biochemical
Chain of CYP1A2 (P05177 whole entry): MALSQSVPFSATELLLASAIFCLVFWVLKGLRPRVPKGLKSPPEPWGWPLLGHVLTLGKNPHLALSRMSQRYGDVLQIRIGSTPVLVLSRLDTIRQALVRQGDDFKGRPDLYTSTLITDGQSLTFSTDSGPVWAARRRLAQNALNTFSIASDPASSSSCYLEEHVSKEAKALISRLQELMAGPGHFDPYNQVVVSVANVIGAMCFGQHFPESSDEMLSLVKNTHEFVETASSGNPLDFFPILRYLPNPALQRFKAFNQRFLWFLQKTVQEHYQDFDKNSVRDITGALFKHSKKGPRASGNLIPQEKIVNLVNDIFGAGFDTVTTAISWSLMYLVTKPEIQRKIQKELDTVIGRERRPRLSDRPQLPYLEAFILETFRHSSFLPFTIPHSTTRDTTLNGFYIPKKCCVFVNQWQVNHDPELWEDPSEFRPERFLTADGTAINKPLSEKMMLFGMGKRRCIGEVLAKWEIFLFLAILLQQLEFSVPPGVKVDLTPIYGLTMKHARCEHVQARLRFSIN

CYP3A4 = conditions: hepatocytes

**Q.** For `Cc1nccn1C[C@H]1CCc2c(c3cccc4c3n2CCC4)C1=O` [Cilansetron, (R)-(−)-4,5,6,8,9,10-hexahydro-10-[(2-methyl-1H-imidazol-1-yl)methyl]-11H-pyrido-[3,2,1-jk]-carbazol-11-one], which “Responder rate better than placebo” value ([1]; 1 mg TID) is on record?
**A.** The value was 22%.

**Q.** And the “Responder rate better than placebo” value ([1]; 1 mg, females)?
**A.** Its value is 26%.

**Q.** What about the “Responder rate higher than placebo” value ([1]; 2 mg TID) of the same molecule?
**A.** The value was 13%.

**Q.** What about the “Responder rate higher than placebo” value ([1]; 8 mg TID) of the same molecule?
**A.** Its value is 15%.

**Q.** And the “Responder rate better than placebo” value ([1]; 16 mg TID)?
**A.** Its value is 22%.

**Q.** And the CL/F (clinical [2]; 32 mg)?
**A.** Its CL/F is 2487 (79) mL/min.

**Q.** And the CL/F (clinical [2]; 64 mg)?
**A.** The CL/F was 1910 (60) mL/min.

**Q.** What about the “DN-AUC(0-inf) ratio 32 mg/16 mg” value (clinical [2]; male) of the same molecule?
**A.** Its value is 127%.

**Q.** What about the “DN-AUC(0-inf) ratio 64 mg/16 mg” value (clinical [2]; male) of the same molecule?
**A.** The value was 158%.

**Q.** What about the “DN-AUC(0-inf) ratio 64 mg/32 mg” value (clinical [2]; male) of the same molecule?
**A.** Its value is 125%.

**Q.** And the “DN-AUC(0-last) ratio 32 mg/16 mg” value (clinical [2]; male)?
**A.** The value was 132%.

**Q.** And the “DN-AUC(0-last) ratio 64 mg/16 mg” value (clinical [2]; male)?
**A.** Its value is 168%.

**Q.** What about the “DN-AUC(0-last) ratio 64 mg/32 mg” value (clinical [2]; male) of the same molecule?
**A.** The value was 127%.

**Q.** And the “DN-Cmax ratio 32 mg/16 mg” value (clinical [2]; male)?
**A.** Its value is 127%.

**Q.** And the “DN-Cmax ratio 64 mg/16 mg” value (clinical [2]; male)?
**A.** Its value is 164%.

**Q.** And the “DN-Cmax ratio 64 mg/32 mg” value (clinical [2]; male)?
**A.** The value was 129%.

**Q.** And the CL renal (clinical [2]; male, 16 mg)?
**A.** The CL renal was 3.39 mL/min.

**Q.** And the Tmax (clinical [2]; male, 16 mg)?
**A.** The Tmax was 1 h.

**Q.** What about the AUC(0-inf) (clinical [2]; male, 32 mg) of the same molecule?
**A.** The AUC(0-inf) was 330 ng·h/mL.

**Q.** What about the AUC(0-t) (clinical [2]; male, 32 mg) of the same molecule?
**A.** The AUC(0-t) was 324 ng·h/mL.

**Q.** And the CL renal (clinical [2]; male, 32 mg)?
**A.** Its CL renal is 5 mL/min.

**Q.** And the Cmax (clinical [2]; male, 32 mg)?
**A.** Its Cmax is 143 ng/mL.

**Q.** What about the Tmax (clinical [2]; male, 32 mg) of the same molecule?
**A.** Its Tmax is 1 h.

**Q.** And the Vd/F (clinical [2]; male, 32 mg)?
**A.** The Vd/F was 269 L.

**Q.** What about the half-life (clinical [2]; male, 32 mg) of the same molecule?
**A.** The half-life was 1.28 h.

**Q.** What about the AUC(0-inf) (clinical [2]; male, 64 mg) of the same molecule?
**A.** Its AUC(0-inf) is 813 ng·h/mL.

**Q.** What about the AUC(0-t) (clinical [2]; male, 64 mg) of the same molecule?
**A.** Its AUC(0-t) is 807 ng·h/mL.

**Q.** What about the CL renal (clinical [2]; male, 64 mg) of the same molecule?
**A.** Its CL renal is 4.5 mL/min.

**Q.** What about the Cmax (clinical [2]; male, 64 mg) of the same molecule?
**A.** The Cmax was 349 ng/mL.

**Q.** What about the Tmax (clinical [2]; male, 64 mg) of the same molecule?
**A.** The Tmax was 1 h.

**Q.** What about the Vd/F (clinical [2]; male, 64 mg) of the same molecule?
**A.** The Vd/F was 204 L.

**Q.** What about the half-life (clinical [2]; male, 64 mg) of the same molecule?
**A.** The half-life was 1.3 h.

**Q.** And the clearance (clinical [3])?
**A.** Its clearance is 550 to 800 mL/min.

**Q.** What about the “DN-AUC(0-inf) ratio 8 mg/4 mg” value (clinical [3]; male) of the same molecule?
**A.** The value was 121%.

**Q.** What about the “DN-AUC(0-inf) ratio 16 mg/4 mg” value (clinical [3]; male) of the same molecule?
**A.** Its value is 124%.

**Q.** And the “DN-AUC(0-inf) ratio 16 mg/8 mg” value (clinical [3]; male)?
**A.** Its value is 102%.

**Q.** And the “DN-AUC(0-last) ratio 8 mg/4 mg” value (clinical [3]; male)?
**A.** The value was 123%.

**Q.** And the “DN-AUC(0-last) ratio 16 mg/4 mg” value (clinical [3]; male)?
**A.** Its value is 126%.

**Q.** What about the “DN-AUC(0-last) ratio 16 mg/8 mg” value (clinical [3]; male) of the same molecule?
**A.** Its value is 102%.

**Q.** What about the Renal elimination (clinical [3]; male) of the same molecule?
**A.** Its Renal elimination is < 1 % of dose.

**Q.** What about the clearance (clinical [3]; male) of the same molecule?
**A.** Its clearance is 550 to 700 mL/min.

**Q.** And the half-life (clinical [3]; male)?
**A.** The half-life was 1.4 to 1.7 h.

**Q.** And the AUC(0-inf) (clinical [3]; male, 4 mg)?
**A.** The AUC(0-inf) was 103 ng·h/mL.

**Q.** What about the AUC(0-t) (clinical [3]; male, 4 mg) of the same molecule?
**A.** Its AUC(0-t) is 100 ng·h/mL.

**Q.** And the CL renal (clinical [3]; male, 4 mg)?
**A.** The CL renal was 2.95 mL/min.

**Q.** What about the Vd (clinical [3]; male, 4 mg) of the same molecule?
**A.** Its Vd is 99 L.

**Q.** And the clearance (clinical [3]; male, 4 mg)?
**A.** The clearance was 680 mL/min.

**Q.** What about the half-life (clinical [3]; male, 4 mg) of the same molecule?
**A.** Its half-life is 1.7 h.

**Q.** What about the AUC(0-inf) (clinical [3]; male, 8 mg) of the same molecule?
**A.** The AUC(0-inf) was 254 ng·h/mL.

**Q.** What about the AUC(0-t) (clinical [3]; male, 8 mg) of the same molecule?
**A.** Its AUC(0-t) is 251 ng·h/mL.

**Q.** What about the CL renal (clinical [3]; male, 8 mg) of the same molecule?
**A.** The CL renal was 2.64 mL/min.

**Q.** And the Vd (clinical [3]; male, 8 mg)?
**A.** The Vd was 78 L.

**Q.** What about the clearance (clinical [3]; male, 8 mg) of the same molecule?
**A.** Its clearance is 567 mL/min.

**Q.** What about the half-life (clinical [3]; male, 8 mg) of the same molecule?
**A.** The half-life was 1.62 h.

**Q.** And the AUC(0-inf) (clinical [3]; male, 16 mg)?
**A.** The AUC(0-inf) was 525 ng·h/mL.

**Q.** What about the AUC(0-t) (clinical [3]; male, 16 mg) of the same molecule?
**A.** The AUC(0-t) was 518 ng·h/mL.

**Q.** And the CL renal (clinical [3]; male, 16 mg)?
**A.** The CL renal was 2.65 mL/min.

**Q.** And the Vd (clinical [3]; male, 16 mg)?
**A.** Its Vd is 68 L.

**Q.** And the clearance (clinical [3]; male, 16 mg)?
**A.** Its clearance is 564 mL/min.

**Q.** What about the half-life (clinical [3]; male, 16 mg) of the same molecule?
**A.** The half-life was 1.41 h.

**Q.** And the IC50 (CYP1A2)?
**A.** Its IC50 is 60 µM.

**Q.** What about the “CYP3A4 mRNA induction” value (CYP3A4) of the same molecule?
**A.** The value was “did not induce”.
